{"source": "paper PMC3683333", "about": "“^11C-LY2428703, a positron emission tomographic radioligand for the metabotropic glutamate receptor 1, is unsuitable for imaging in monkey and human brains” (EJNMMI Research, 2013)", "key": {"[1]": {"experiment": "Whole-body biodistribution and radiation dosimetry, monkey", "format": "in vivo, rhesus monkeys", "settings": "for radiation-absorbed dose: monkey data extrapolated to 70-kg adult male", "procedure": "Two male rhesus monkeys (14.1 and 19.9 kg) were scanned after intravenous injection of 318 and 274 MBq of ^11C-LY2428703, respectively. Dynamic two-dimensional scans were acquired on the GE Advance tomograph (GE Medical Systems, Milwaukee, WI, USA) in five bed positions of the body (head to upper thigh), with frames of increasing duration (15 s to 4 min) for a total scan time of up to 115 min.\nImages were analyzed by placing regions of interest on the dynamic tomographic images. Regions were drawn in identifiable source organs: brain, heart, lungs, liver, spleen, gallbladder, kidneys, lumbar vertebrae, small intestine, testes, and urinary bladder. […] The mean recovery of activity in the body above the thigh measured by PET was 85.6% of the injected activity measured by a dose calibrator. This recovered total activity in the body was used as the new injected activity for each scan.\nAt each time point, the activity measured within the organs was converted into the fraction of the injected dose by dividing the organ activities by the recovered injected activity. The area under the curve (AUC) of each organ was calculated by the trapezoidal method until acquisition ended. The area under the curve after the acquisition of the last image (i.e., to infinity) was calculated by assuming that the decline in radioactivity after this time point occurred only via physical decay, without any further biological clearance.\nResidence times from the monkeys were converted into corresponding human values by multiplying with a factor to scale organ and body weights: (bm/om) × (oh/bh), where bm and bh are the body weights of monkey and human, respectively, and om and oh are the organ weights of monkey and human, respectively.\nRadiation absorbed doses were calculated from the residence times for each source organ. We used the model for a 70-kg adult male in the OLINDA/EXM computer program."}, "P-gp": {"test_system": "P-gp", "design": "method as in PMID 23135321", "settings": "previous in vitro analyses; cited from earlier work"}, "[2]": {"experiment": "Plasma free fraction by ultrafiltration, human", "format": "in vitro ADME", "settings": "humans, n = 3", "procedure": "The plasma free fraction (fp) of ^11C-LY2428703 was measured by ultrafiltration through membrane filters (Centrifree; Millipore, Billerica, MA, USA) as previously described. Briefly, about 740 kBq of ^11C-LY2428703 (approximately 5 μL) was added to 650 μL of plasma. The mixture was incubated at room temperature for 10 min and then processed as described previously. When radioactivities for the filter components were high, they were allowed to decay until they were within the optimal range of the γ-counter. Determining the free fraction during preblocking was done by drawing blood samples after the preblocking treatments were initiated but immediately before administering the radioligand.\n(§1) PET images were acquired using the GE Advance scanner (GE Healthcare, Milwaukee, WI, USA) for 120 min. An 8-min ^68Ge transmission scan was obtained before the injection of the radiotracer for attenuation correction. The mean injected activity was 328 ± 12 MBq. The specific activity at the time of injection was 87.2 ± 34.7 GBq/μmol, which corresponded to 5.5 ± 2.3 nmol (0.082 ± 0.037 nmol/kg) of carrier. Blood samples (1 mL each) were drawn from the radial artery at 15-s intervals until 150 s, followed by 3-mL samples at 3, 4, 6, 8, 10, 15, 20, 30, 40, and 50 min, and 4.5 mL at 60, 75, 90, and 120 min. The unchanged parent fraction in plasma and fP of ^11C-LY2428703 were determined as described above."}, "[3]": {"experiment": "In vitro stability in nonhuman primate blood and plasma", "format": "in vitro ADME", "settings": "monkey, room temperature", "procedure": "Nonradioactive anticoagulated blood was obtained on the day of study from either human or nonhuman primates. Aliquots of ^11C-LY2428703 (about 150 kBq) were added to 0.5 mL of whole blood or 0.5 mL of plasma. Samples were incubated at room temperature for 30 min, after which either 450 μL of the radioactive plasma was added to 720 μL of acetonitrile or 200 μL of the radioactive whole blood was added to 300 μL of water. The tube containing the blood suspension was shaken well to mix and lyse the blood cells. Seven hundred and twenty microliters of acetonitrile was subsequently added and mixed well to precipitate the proteins, followed by 100 μL of water, which was again re-mixed. Radioactivity in the tubes was measured in a gamma counter and then centrifuged at 10,000×g for 1 min. The clear supernatant liquid was injected into the high-performance liquid chromatography (HPLC) column and the precipitate counted to calculate the recovery of radioactivity into the acetonitrile.\nThe stability of the radioligand in whole blood or plasma was calculated as the ratio of the HPLC % composition of samples divided by the radiochemical purity of the radioligand."}, "[4]": {"experiment": "Pharmacological effects of injection, human", "format": "in vivo", "settings": "three human subjects", "text": "Three healthy females participated in the study (29 ± 2-year old, 69 ± 13 kg). All were free from current medical and psychiatric illnesses, as assessed by medical history, physical examination, electrocardiogram, urinalysis including drug screening, and blood tests (complete blood count, serum chemistries, thyroid function test, and antibody screening for syphilis, HIV, and hepatitis B). The National Institutes of Health Central Nervous System Institutional Review Board approved the protocols and the consent forms. Written informed consent was obtained from all subjects."}, "[5]": {"experiment": "Arterial plasma analysis after injection, human", "format": "in vivo", "procedure": "Plasma analyses were performed on a reverse-phase chromatography C18 column (Novapak, 4 μm, 100 × 8 mm, Waters Corp. Milford, MA, USA) using Radial-Pak® compression module RCM-100 with a sentry pre-column. Human plasma analyses were performed with a mobile phase of […], at a flow rate of 2.5 mL/min; nonhuman primate plasma samples were analyzed with a mobile phase of MeOH/H2O/Et3N, 72.5:27.5:0.1 by volume, at a flow rate of 1.5 mL/min. To compare the outcome from both systems, elution volume is reported rather than retention time.\nArterial plasma was analyzed as previously described. Briefly, after ^11C-LY2428703 injection into either human or nonhuman primate, the input function was determined by periodically drawing anticoagulated blood samples. Blood aliquots were removed so that the γ-counter could provide information necessary for vascular correction. The remaining blood was then centrifuged, and plasma (450 μL) aliquots were removed and placed in acetonitriles (720 μL/ea) spiked with carrier LY2428703. The samples were mixed well, 100 μL water aliquots were added, and then, the sample was further mixed. The samples were counted in the γ-counter and centrifuged at 10,000×g for 1 min. The clear supernatant liquids were injected onto the radio-HPLC as described above. The precipitates were then counted for radioactivity to allow the calculation of the efficiency of recovery of radioactivity in the acetonitrile. Human plasma samples were separated with a mobile phase of higher polarity ([…]) to ensure that the parent radiochromatographic peak comprised a single radiochemical species.\nas §1"}}}
{"molecule": "Cc1c(-c2ccc(O[11CH3])cc2)nsc1NC(=O)[C@@H]1C[C@H]1C", "note": "[^11C-LY2428703]", "values": [{"measurement": "radiation-absorbed dose", "setting": "[1]; heart wall", "result": 8.2, "unit": "μSv/MBq"}, {"measurement": "radiation-absorbed dose", "setting": "[1]; liver", "result": 9.9, "unit": "μSv/MBq"}, {"measurement": "effective dose", "setting": "[1]; monkey data extrapolated to humans", "result": 5.8, "unit": "μSv/MBq"}, {"measurement": "peak uptake in liver", "setting": "[1]; monkey, average peak", "result": "approximately 12 SUV"}, {"measurement": "time of peak uptake in liver", "setting": "[1]; monkey, post-injection", "result": "about 5 min"}, {"measurement": "radiation-absorbed dose", "setting": "[1]; other organs", "result": "less than 7 μSv/MBq"}, {"measurement": "radiation-absorbed dose", "setting": "[1]; testes", "result": 13.7, "unit": "μSv/MBq"}, {"measurement": "substrate for P-gp", "setting": "P-gp", "result": "not a substrate"}, {"measurement": "fp (plasma free fraction)", "setting": "[2]", "result": 0.094, "unit": "%"}, {"measurement": "stability in whole blood and plasma", "setting": "[3]", "result": "completely stable"}, {"measurement": "pharmacological effects (vital signs, electrocardiogram, laboratory testing, verbal reports)", "setting": "[4]", "result": "no pharmacological effects"}, {"measurement": "peak plasma concentration", "setting": "[5]", "result": "33 ± 5", "unit": "SUV"}, {"measurement": "time of peak plasma concentration", "setting": "[5]", "result": "1.5 ± 0", "unit": "min"}, {"measurement": "radiometabolites in plasma", "setting": "[5]; at 2 h", "result": "approximately 1%"}, {"measurement": "parent radioligand as share of total blood radioactivity", "setting": "[5]; entire 2-h imaging period", "result": "~99", "unit": "%"}]}
